In publication PMC5963010, “Characterization of a novel thermostable and xylose-tolerant GH 39 β-xylosidase from Dictyoglomus thermophilum” (BMC Biotechnology, 2018):

Target: T1, Xln-DT (Dictyoglomus thermophilum, UniProt B5YB78)
T1 construct: gene DICTH_1792; full-length ORF, 502 aa (1509 bp), in pET-20b (BamHI/XhoI), E. coli BL21(DE3); tag not described
T1 sequence (B5YB78 1-502): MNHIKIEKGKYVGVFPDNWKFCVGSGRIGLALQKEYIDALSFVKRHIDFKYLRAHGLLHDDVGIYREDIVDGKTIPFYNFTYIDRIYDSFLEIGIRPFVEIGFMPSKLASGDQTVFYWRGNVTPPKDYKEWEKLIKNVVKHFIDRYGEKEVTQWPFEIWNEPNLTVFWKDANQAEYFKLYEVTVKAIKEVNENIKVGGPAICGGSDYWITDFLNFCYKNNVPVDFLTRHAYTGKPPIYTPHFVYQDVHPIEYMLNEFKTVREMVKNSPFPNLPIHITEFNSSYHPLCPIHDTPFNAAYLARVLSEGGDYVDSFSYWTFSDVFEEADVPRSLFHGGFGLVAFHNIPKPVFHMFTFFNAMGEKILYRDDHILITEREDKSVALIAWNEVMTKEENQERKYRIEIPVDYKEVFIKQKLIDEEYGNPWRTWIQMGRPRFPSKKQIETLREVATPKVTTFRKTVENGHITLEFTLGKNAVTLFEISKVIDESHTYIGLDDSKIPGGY
Assay: pNPX hydrolysis assay with added xylose
Format: biochemical

inhibition at 3 M: 40%
SMILES: OC1OC[C@@H](O)[C@H](O)[C@H]1O (stereo partly shown) [xylose]
